Laboratory results: PubChem BioAssay AID1919002 (Molecular Pharmacology Branch, DTP, NCI, 2023)
Where “and” joins values, the source holds several entries; their conditions need not be identical. Identical values can stand only once. One block for each molecule: values may come before it.

Tested on: 743489-274-T-PDC complex spheroid growth
Test: Anticancer human tumor 743489-274-T-PDC patient-derived renal cell carcinoma cell line growth inhibition [AhR]
Conditions: for viability, T/C: stronger effect = lower value
Outline: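 Complex tumor spheroids co-cultured with HUVEC and human MSC stroma; AhR antagonists tested in combination with standard-of-care and investigational agents. Top concentration at or near clinical Cmax (else 10 microM), half-log dilutions; growth expressed as percent test/control.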

[1] = curve of first compound, second compound 0.1 µM
[2] = curve of first compound, second compound 0.316 µM
[3] = curve of first compound, second compound 1 µM
[4] = curve of first compound, second compound 3.16 µM
[5] = curve of first compound, second compound 10 µM
[6] = second compound 0.1 µM, first compound 0.000316 µM
[7] = second compound 0.1 µM, first compound 0.001 µM
[8] = second compound 0.1 µM, first compound 0.00316 µM
[9] = second compound 0.1 µM, first compound 0.01 µM
[10] = second compound 0.1 µM, first compound 0.0316 µM
[11] = second compound 0.1 µM, first compound 0.1 µM
[12] = second compound 0.316 µM, first compound 0.000316 µM
[13] = second compound 0.316 µM, first compound 0.001 µM
[14] = second compound 0.316 µM, first compound 0.00316 µM
[15] = second compound 0.316 µM, first compound 0.01 µM
[16] = second compound 0.316 µM, first compound 0.0316 µM
[17] = second compound 0.316 µM, first compound 0.1 µM
[18] = second compound 1 µM, first compound 0.000316 µM
[19] = second compound 1 µM, first compound 0.001 µM
[20] = second compound 1 µM, first compound 0.00316 µM
[21] = second compound 1 µM, first compound 0.01 µM
[22] = second compound 1 µM, first compound 0.0316 µM
[23] = second compound 1 µM, first compound 0.1 µM
[24] = second compound 3.16 µM, first compound 0.000316 µM
[25] = second compound 3.16 µM, first compound 0.001 µM
[26] = second compound 3.16 µM, first compound 0.00316 µM
[27] = second compound 3.16 µM, first compound 0.01 µM
[28] = second compound 3.16 µM, first compound 0.0316 µM
[29] = second compound 3.16 µM, first compound 0.1 µM
[30] = second compound 10 µM, first compound 0.000316 µM
[31] = second compound 10 µM, first compound 0.001 µM
[32] = second compound 10 µM, first compound 0.00316 µM
[33] = second compound 10 µM, first compound 0.01 µM
[34] = second compound 10 µM, first compound 0.0316 µM
[35] = second compound 10 µM, first compound 0.1 µM
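Further: spheroids exposed to agents for 7 days before readout.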
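Wherever viability, T/C is given: 100% = DMSO vehicle control wells.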

IC50 [1]: 2610 nM
IC50 [2]: 2570 nM
IC50 [3]: 2340 nM
IC50 [4]: 2260 nM
IC50 [5]: 1720 nM
SMILES: COc1ccc([C@@H](O)c2cc(-c3ncnc4cc(N5CCOCC5)ccc34)c(F)cc2Cl)nn1 + Cc1ccccc1N=Nc1ccc(NC(=O)c2ccnn2C)c(C)c1
viability, T/C [10]: 99.7%
viability, T/C [11]: 87.6%
viability, T/C (second compound 0.1 µM, first compound 0.316 µM): 95.7%
viability, T/C (second compound 0.1 µM, first compound 1 µM): 80.1%
viability, T/C (second compound 0.1 µM, first compound 3.16 µM): 44.1%
viability, T/C (second compound 0.1 µM, first compound 10 µM): 31.9%
viability, T/C [16]: 96.2%
viability, T/C [17]: 89.1%
viability, T/C (second compound 0.316 µM, first compound 0.316 µM): 92.4%
viability, T/C (second compound 0.316 µM, first compound 1 µM): 77.2%
viability, T/C (second compound 0.316 µM, first compound 3.16 µM): 44.1%
viability, T/C (second compound 0.316 µM, first compound 10 µM): 22.4%
viability, T/C [22]: 101%
viability, T/C [23]: 87%
viability, T/C (second compound 1 µM, first compound 0.316 µM): 86.5%
viability, T/C (second compound 1 µM, first compound 1 µM): 68.9%
viability, T/C (second compound 1 µM, first compound 3.16 µM): 42.2%
viability, T/C (second compound 1 µM, first compound 10 µM): 22.8%
viability, T/C [28]: 84.5%
viability, T/C [29]: 81.5%
viability, T/C (second compound 3.16 µM, first compound 0.316 µM): 87.5%
viability, T/C (second compound 3.16 µM, first compound 1 µM): 77.7%
viability, T/C (second compound 3.16 µM, first compound 3.16 µM): 38.4%
viability, T/C (second compound 3.16 µM, first compound 10 µM): 19.1%
viability, T/C [34]: 86.2%
viability, T/C [35]: 90.2%
viability, T/C (second compound 10 µM, first compound 0.316 µM): 81.5%
viability, T/C (second compound 10 µM, first compound 1 µM): 62.2%
viability, T/C (second compound 10 µM, first compound 3.16 µM): 36.1%
viability, T/C (second compound 10 µM, first compound 10 µM): 18.8%

IC50 (curve of compound): 7940 nM and 3030 nM and 4530 nM
SMILES: COc1ccc([C@@H](O)c2cc(-c3ncnc4cc(N5CCOCC5)ccc34)c(F)cc2Cl)nn1
viability, T/C (compound 0.0316 µM): 107% and 116% and 95%
viability, T/C (compound 0.1 µM): 105% and 102% and 106%
viability, T/C (compound 0.316 µM): 94.2% and 93.8% and 101%
viability, T/C (compound 1 µM): 93.3% and 90.2% and 84.6%
viability, T/C (compound 3.16 µM): 65% and 45.8% and 61.5%
viability, T/C (compound 10 µM): 46.3% and 26% and 26.9%

Further lines, the molecule ahead of its results:

SMILES: CC[C@@]1(O)C(=O)OCc2c1cc1n(c2=O)Cc2cc3c(CN(C)C)c(O)ccc3nc2-1 + Cc1cncc(-c2nc(NCCc3c[nH]c4ccccc34)c3ncn(C(C)C)c3n2)c1
IC50 [1]: > 100 nM
IC50 [2]: > 100 nM
IC50 [3]: > 100 nM
IC50 [4]: > 100 nM
IC50 [5]: > 100 nM
viability, T/C [6]: 100%
viability, T/C [7]: 108%
viability, T/C [8]: 98.7%
viability, T/C [9]: 94.5%
viability, T/C [10]: 93.1%
viability, T/C [11]: 97.4%
viability, T/C [12]: 105%
viability, T/C [13]: 110%
viability, T/C [14]: 105%
viability, T/C [15]: 98.6%
viability, T/C [16]: 92.8%
viability, T/C [17]: 90.4%
viability, T/C [18]: 101%
viability, T/C [19]: 105%
viability, T/C [20]: 101%
viability, T/C [21]: 89.8%
viability, T/C [22]: 86.5%
viability, T/C [23]: 84.3%
viability, T/C [24]: 113%
viability, T/C [25]: 109%
viability, T/C [26]: 129%
viability, T/C [27]: 101%
viability, T/C [28]: 107%
viability, T/C [29]: 84.7%
viability, T/C [30]: 136%
viability, T/C [31]: 123%
viability, T/C [32]: 133%
viability, T/C [33]: 123%
viability, T/C [34]: 123%
viability, T/C [35]: 114%

SMILES: Cn1ncnc1C1c2n[nH]c(=O)c3cc(F)cc(c23)NC1c1ccc(F)cc1 (centres undefined) + Cc1ccccc1N=Nc1ccc(NC(=O)c2ccnn2C)c(C)c1
IC50 [1]: > 100 nM
IC50 [2]: > 100 nM
IC50 [3]: > 100 nM
IC50 [4]: > 100 nM
IC50 [5]: > 100 nM
viability, T/C [6]: 97.3%
viability, T/C [7]: 106%
viability, T/C [8]: 101%
viability, T/C [9]: 101%
viability, T/C [10]: 103%
viability, T/C [11]: 90.2%
viability, T/C [12]: 98.2%
viability, T/C [13]: 107%
viability, T/C [14]: 89%
viability, T/C [15]: 98.9%
viability, T/C [16]: 97.8%
viability, T/C [17]: 88.8%
viability, T/C [18]: 105%
viability, T/C [19]: 92.1%
viability, T/C [20]: 100%
viability, T/C [21]: 96.7%
viability, T/C [22]: 106%
viability, T/C [23]: 92.5%
viability, T/C [24]: 93.3%
viability, T/C [25]: 106%
viability, T/C [26]: 97.7%
viability, T/C [27]: 91%
viability, T/C [28]: 94.1%
viability, T/C [29]: 102%
viability, T/C [30]: 99.8%
viability, T/C [31]: 101%
viability, T/C [32]: 103%
viability, T/C [33]: 92.2%
viability, T/C [34]: 89.4%
viability, T/C [35]: 103%

SMILES: O=C(c1cc(Cc2n[nH]c(=O)c3ccccc23)ccc1F)N1CCN(C(=O)C2CC2)CC1
viability, T/C (compound 0.0316 µM): 95.7% and 110% and 102%
viability, T/C (compound 0.1 µM): 101% and 105% and 113%
viability, T/C (compound 0.316 µM): 103% (2×) and 97.1%
viability, T/C (compound 1 µM): 92.9% and 102% and 112%
viability, T/C (compound 3.16 µM): 102% and 101% and 109%
viability, T/C (compound 10 µM): 96.3% and 110% and 106%
IC50 (curve of compound): > 10000 nM
